As usually defined, the LD50 is the dose at which mortality reaches 50%.

SMILES strings stand for the structures.

The source of these data is EP0215956A1, “COMPOSITION FOR TREATING SKIN DISEASE” (priority 1985, dated 1986).

One series concerns psoriasis vulgaris. The series can be described thus: Peroral administration to patients with psoriasis vulgaris (case reports). Type of series: in vivo, human. The following applies: for psoriasis vulgaris severity: 0.75 µg per day orally. The procedure:
In order to treat this disease, 0.75 µg of la-hydroxyvitamin D3 was orally administered per day.
This patient had been suffering from psoriasis vulgaris for one year, during which period they were under therapy involving external use of corticosteroid. […] Thereafter, the external use of corticosteroid was suspended and only la-hydroxyvitamin D3 was kept administered perorally.
After suspending the external use of corticosteroid, peroral administration of la-hydroxyvitamin D3 in a daily dose of 1 µg was initiated.
This patient had been suffering from psoriasis vulgaris for 2 years.

The test system of the next series is patients. The following applies: human, in vivo, po. An excerpt: the six patients under therapy by oral administration of la-dihydroxyvitamin D3 and the one patient receiving orally administered la,25-dihydroxyvitamin D3 were subjected to the following analyses, tests and measurements at intervals of twice a month in the first two months of administration and once a month in the subsequent period: blood analysis for determining the number of erythrocytes, the number of platelets and the percentage of leucocytes; urine analysis for determining the levels of urinary protein, glucose, pH, acetone and urobilinogen and the presence of occult blood; testing liver functions by determining the levels of blood GOT, GPT and total bilirubin; testing kidney functions by determining the levels of blood creatinine and BUN; and the measurement of blood calcium and inorganic phosphate levels.

Series [1] can be described thus: Acute toxicity test (LD50), mice. Particulars: mouse, in vivo, 5-week-old ddY mice, Litchfield-Wilcoxon method. The procedure:
(§1) Acute toxicity of la-hydroxyvitamin D3 was evaluated by its peroral and subcutaneous administration to mice and rats.

Series [2] can be described thus: Acute toxicity test (LD50), rats. Particulars: rat, in vivo, 5-week-old SD-TCL rats, Litchfield-Wilcoxon method. How it is done:
as §1

The mark [3] stands for this setting: patient, daily dose of 1 µg perorally, two months, external corticosteroid suspended.

As for `C=C1/C(=C\C=C2/CCC[C@]3(C)[C@@H]([C@H](C)CCCC(C)(C)O)CC[C@@H]23)C[C@@H](O)C[C@@H]1O` [la,25-dihydroxyvitamin D3], in the series on psoriasis vulgaris (patient, daily dose of 0.5 µg perorally, three months, diminished rashes and flares), the dermal lesion condition result was “moderate improvement in the dermal lesion condition”. In the series on patients, the “abnormal subjective symptom or objective sign” value is recorded as “Not a single patient under therapy had any abnormal subjective symptom or objective sign”; the “change of blood, urine, liver function, kidney function, blood calcium and inorganic phosphate parameters from values prior to treatment” value is “None of the parameters analyzed showed any abnormal change”.

In the case of `C=C1/C(=C\C=C2/CCC[C@]3(C)[C@@H]([C@H](C)CCCC(C)C)CC[C@@H]23)C[C@@H](O)C[C@@H]1O` [la-hydroxyvitamin D3, 1α-hydroxyvitamin D3], the LD50 was found to be 0.71 mg/kg in series [1] (po, Peroral, female); 0.68 mg/kg in series [1] (po, Peroral, male); 0.058 mg/kg in series [1] (sc, subcutaneous, female); 0.055 mg/kg in series [1] (sc, subcutaneous, male); 0.743 mg/kg in series [2] (po, Peroral, female); 0.62 mg/kg in series [2] (po, Peroral, male). The LD50 worked out at 0.04 mg/kg in series [2] (sc, subcutaneous, female) and 0.056 mg/kg in series [2] (sc, subcutaneous, male). Moreover, the dermal lesion condition result in the series on psoriasis vulgaris (patient (psoriasis for 6 years), daily dose of 1 µg perorally, three months) is given as “moderate improvement in the dermal lesion condition”; in the series on psoriasis vulgaris (patient (psoriasis for 25 years), daily dose of 1 µg perorally, three months), “moderate improvement in the dermal lesion condition”; in the series on psoriasis vulgaris (patient, 1.0 µg per day orally, four months later, with external corticosteroid, slight loss of dermal pigment remained), “improved pronouncedly”; in the series on psoriasis vulgaris (patient, 1.0 µg per day orally, two months after start, with external corticosteroid), “a sign of improvement in the dermal lesion condition”; with psoriasis vulgaris (patient, daily dose of 1 µg orally, two months after start), “diminished by a small degree”; with psoriasis vulgaris (patient, daily dose of 1 µg orally, two more months later) it was “pronounced improvement in the condition”. The dermal lesion condition entry with psoriasis vulgaris (patient, peroral only, external corticosteroid suspended, six months later) is “completely cured”. The psoriasis vulgaris severity result is given as “virtually disappeared” in the series on psoriasis vulgaris (patient, a half month after the two months and a half); “dramatically diminished in severity” in the series on psoriasis vulgaris (patient, two months and a half after start). Besides, the “condition of the lesion elsewhere on the body” value in the series with psoriasis vulgaris (setting [3]) is “improved markedly”. Also, the “dermal lesion on the soles” value in the series with psoriasis vulgaris (setting [3]) was “disappeared”. Besides, the maintenance of improvement entry with psoriasis vulgaris (patient, subsequent peroral daily dose of 0.5 ug) was “improvement could be maintained”. For the same compound, in the series on patients, the “abnormal subjective symptom or objective sign” value was “Not a single patient under therapy had any abnormal subjective symptom or objective sign”. Further, in the series on patients, the “change of blood, urine, liver function, kidney function, blood calcium and inorganic phosphate parameters from values prior to treatment” value is “None of the parameters analyzed showed any abnormal change”.
